Assay results from patent publication EP0546474A1, “Pseurotin F1/F2, new metabolites from Aspergillus fumigatus, process for their preparation and their use as apomorphine antagonists” (HOECHST AKTIENGESELLSCHAFT, priority 1991, dated 1993).

Legend:
[1] = Stability in the solid state and in solution; type: physicochemical; settings: solid state and solutions in the pH range between 3 and 8, in particular 5 and 7
Text: Die Verbindungen der Formeln la und Ib sind im festen Zustand und in Lösungen im pH-Bereich zwischen 3 und 8, insbesondere 5 und 7, stabil und lassen sich damit in übliche galenische Zubereitungen einarbeiten.

[2] = Solubility in organic solvents; type: physicochemical; settings: in CH2C12, CHCl3, Essigsäureethylester, Aceton, Ethanol and Isopropanol; isolated as amorphous solid
Text: Die Pseurotine F1 /F2 werden als amorpher Feststoff isoliert und sind z.B. löslich in CH2C12, CHCl3, Essigsäureethylester, Aceton, Ethanol und Isopropanol. • FAB-MS: m/e = 418 (37 %, [M + H]^+), 400 (12 %) 382 (14 %) • Pseurotin F1: Rf = 0,29; Ethylacetat-H/Heptan (2 : 1) • Pseurotin F2: Rf = 0,20; Ethylacetat-H/Heptan (2:1) (dünnschichtchromatographisch aufgetrennt) Molmasse: 417, 12 (C21 H23NO8)

Mäusen = assay: Apomorphine antagonism: inhibition of apomorphine-induced climbing in mice; type: in vivo; settings: compound given 30 min (i.p.) or 60 min (p.o.) before apomorphine
Method: Die Wirkung der Verbindungen der Formeln la und Ib als Apomorphin Antagonisten wird an Mäusen getestet. Hierzu wird zunächst Apomorphin als 1 %ige Lösung (Verdünnungsmittel:Tylose, z.B. Methocel, Hoechst AG, Frankfurt, Deutschland) einmalig […] injiziert. Die Dosis ist so gewählt, daß sie bei 95 % der Mäuse für ca. 30 Minuten eine anhaltende Klettertätigkeit auslöst (1,5 mg Apomorphin/kg Maus; subcutane Injektion). Tiere, die noch vor der Apomorphingabe eine konstante Klettertätigkeit aufweisen, werden nicht im Test berücksichtigt. Pseurotin F1 oder F2 wird 30 bzw. 60 Min. vor Apomorphin appliziert (i.p. bzw. p.o.). Es wird viermal abgelesen: unmittelbar vor sowie 10, 20 und 30 Min nach Apomorphin-Injektion. Dabei wird das Kletterverhalten pro Maus beurteilt:
Testkriterium ist, ob eine Hemmung des durch Apomorphin verursachten Kletterns eintritt.

[3] = 10 min after apomorphine injection (1,5 mg/kg, s.c.), observed in the majority of treated mice
[4] = 20 min after apomorphine injection (1,5 mg/kg, s.c.), observed in nearly all animals

| Structure (SMILES) | Stabilität [1] | Löslichkeit [2] | Kletterverhalten pro Maus (Hemmung des durch Apomorphin verursachten Kletterns) (Mäusen; [3]) | Kletterverhalten pro Maus (Hemmung des durch Apomorphin verursachten Kletterns) (Mäusen; [4]) |
| --- | --- | --- | --- | --- |
| CC/C=C\[C@H](O)[C@H](O)C1=C(C)C(=O)[C@]2(O1)C(=O)N[C@](O)(C(=O)c1ccccc1)[C@@H]2O [Pseurotin F1] | stabil | löslich | nur noch 1 oder 2 Pfoten an der Wand | deutliche Symptome in Form der Kletterhemmung (4 Pfoten am Boden) |
| CC/C=C\[C@H](O)[C@H](O)C1=C(C)C(=O)[C@]2(O1)C(=O)N[C@@](O)(C(=O)c1ccccc1)[C@@H]2O [Pseurotin F2] | stabil | löslich | nur noch 1 oder 2 Pfoten an der Wand | deutliche Symptome in Form der Kletterhemmung (4 Pfoten am Boden) |
